Measured values from patent US11767322B2 (BRISTOL-MYERS SQUIBB COMPANY, priority 2020, dated 2023).
Where two headings read alike, the source gives them in different places.

Tests used:
[1] = target: GST-tagged PIK3Cδ in complex with PIK3R1 (Homo sapiens, UniProt O00329); assay: PI3Kδ HTRF binding assay; details: HTRF probe displacement, 1 h at rt; read-out: PIK3CD IC50
[2] = tested on: MLKL phosphorylation in HT29-L23 human colorectal adenocarcinoma cells; assay: MLKL phosphorylation high-content assay; type: cell-based
[3] = Homo sapiens, 6 h, HT29-L23 cells, necroptosis induced with TNFα, SMAC mimetic and Z-VAD, 6 h, maximal inhibition defined by Nec1s, read-out: pMLKL IC50
[4] = HT29-L23 cells, necroptosis induced with TNFα, SMAC mimetic and Z-VAD, 6 h, maximal inhibition defined by Nec1s, read-out: pMLKL IC50
[5] = Table 22, compounds of the present invention, read-out: pMLKL IC50

GST-tagged PIK3Cδ in complex with PIK3R1, sequence (O00329 whole entry): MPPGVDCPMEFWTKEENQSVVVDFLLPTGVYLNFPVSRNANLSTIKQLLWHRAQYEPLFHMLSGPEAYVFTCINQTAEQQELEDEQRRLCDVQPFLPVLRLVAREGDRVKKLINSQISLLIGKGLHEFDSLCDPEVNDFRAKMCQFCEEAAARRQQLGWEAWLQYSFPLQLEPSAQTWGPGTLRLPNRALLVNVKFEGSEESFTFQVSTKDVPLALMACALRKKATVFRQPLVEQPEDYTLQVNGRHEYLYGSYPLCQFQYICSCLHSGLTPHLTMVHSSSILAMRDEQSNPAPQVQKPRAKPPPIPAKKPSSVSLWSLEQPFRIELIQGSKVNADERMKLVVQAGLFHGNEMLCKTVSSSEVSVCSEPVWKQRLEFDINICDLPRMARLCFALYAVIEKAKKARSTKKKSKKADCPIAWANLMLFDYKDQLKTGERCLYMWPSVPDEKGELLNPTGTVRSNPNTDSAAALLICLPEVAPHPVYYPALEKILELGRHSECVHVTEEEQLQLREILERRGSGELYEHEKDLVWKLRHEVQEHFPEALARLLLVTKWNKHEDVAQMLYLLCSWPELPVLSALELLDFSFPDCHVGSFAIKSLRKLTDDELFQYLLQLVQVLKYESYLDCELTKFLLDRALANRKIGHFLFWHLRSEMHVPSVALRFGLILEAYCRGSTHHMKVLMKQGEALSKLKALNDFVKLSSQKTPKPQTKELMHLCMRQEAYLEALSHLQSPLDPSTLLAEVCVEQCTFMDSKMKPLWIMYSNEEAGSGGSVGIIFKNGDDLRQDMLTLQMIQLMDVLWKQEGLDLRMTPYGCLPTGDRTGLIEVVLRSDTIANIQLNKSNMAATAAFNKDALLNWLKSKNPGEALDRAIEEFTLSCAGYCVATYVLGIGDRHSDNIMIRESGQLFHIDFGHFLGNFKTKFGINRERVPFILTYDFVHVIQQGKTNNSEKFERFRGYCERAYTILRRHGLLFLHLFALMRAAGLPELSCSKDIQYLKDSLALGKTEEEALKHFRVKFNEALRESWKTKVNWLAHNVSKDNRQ
GST-tagged PIK3Cδ in complex with PIK3R1, sequence (P27986 whole entry partner): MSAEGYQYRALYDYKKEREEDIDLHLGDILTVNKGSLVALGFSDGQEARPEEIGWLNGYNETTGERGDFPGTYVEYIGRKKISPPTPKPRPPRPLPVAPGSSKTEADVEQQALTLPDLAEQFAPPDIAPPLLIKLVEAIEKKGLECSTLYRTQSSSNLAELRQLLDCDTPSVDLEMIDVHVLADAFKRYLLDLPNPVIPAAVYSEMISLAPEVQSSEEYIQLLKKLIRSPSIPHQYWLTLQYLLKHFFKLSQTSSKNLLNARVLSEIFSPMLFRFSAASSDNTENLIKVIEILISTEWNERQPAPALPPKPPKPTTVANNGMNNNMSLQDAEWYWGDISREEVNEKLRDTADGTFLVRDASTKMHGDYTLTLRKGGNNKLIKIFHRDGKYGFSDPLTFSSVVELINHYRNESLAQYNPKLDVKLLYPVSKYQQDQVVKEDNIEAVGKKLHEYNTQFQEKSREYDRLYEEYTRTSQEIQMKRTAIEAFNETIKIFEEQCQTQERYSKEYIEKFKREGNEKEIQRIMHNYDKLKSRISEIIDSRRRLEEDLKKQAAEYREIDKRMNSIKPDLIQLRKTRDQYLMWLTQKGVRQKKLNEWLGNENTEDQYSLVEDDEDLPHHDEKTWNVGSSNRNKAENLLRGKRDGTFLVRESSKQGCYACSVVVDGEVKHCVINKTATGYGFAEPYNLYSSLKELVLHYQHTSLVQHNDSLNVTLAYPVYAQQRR

| Structure (SMILES) | IC50 [1] | IC50 [2, 3] | other results |
| --- | --- | --- | --- |
| Cc1ccc(-c2ccn3nc(N)nc3c2)c(F)c1C(=O)NCC(F)(F)C(O)c1ccc(Cl)c(Cl)c1 (single isomer, unassigned) [Example 113, 3-{2-amino-[1,2,4]triazolo[1,5-a]pyridin-7-yl}-N-[3-(3,4-dichlorophenyl)-2,2-difluoro-3-hydroxypropyl]-2-fluoro-6-methylbenzamide] | > 15000 nM |  |  |
| Cc1cc(F)c(-c2ccn3nc(N)nc3c2)cc1C(=O)NCCC(O)c1ccc(C(F)(F)F)cc1 (racemic) [Example 2, 5-(2-amino-[1,2,4]triazolo[1,5-a]pyridin-7-yl)-4-fluoro-N-(3-hydroxy-3-(4-(trifluoromethyl)phenyl)propyl)-2-methylbenzamide] | > 15000 nM |  |  |
| Cc1ccc(-c2ccn3nc(N)nc3c2)c(F)c1C(=O)NCCC(O)c1cccc(F)c1 (single isomer, unassigned) [Example 63, 3-(2-amino-[1,2,4]triazolo[1,5-a]pyridin-7-yl)-2-fluoro-N-(3-(3-fluorophenyl)-3-hydroxypropyl)-6-methylbenzamide] | 13000 nM | 1.9 nM |  |
| Cc1ccc(-c2ccn3nc(N)nc3c2)c(F)c1C(=O)NCC(F)(F)C(O)C1CC(F)(F)C1 (stereo not drawn) [Example 258, 3-(2-amino-[1,2,4]triazolo[1,5-a]pyridin-7-yl)-N-(3-(3,3-difluorocyclobutyl)-2,2-difluoro-3-hydroxypropyl)-2-fluoro-6-methylbenzamide] | > 15000 nM |  |  |
| Cc1ccc(-c2ccn3nc(N)nc3c2)c(F)c1C(=O)NCCC(O)c1ccc(Cl)cn1 (single isomer, unassigned) [Example 47, 3-(2-amino-[1,2,4]triazolo[1,5-a]pyridin-7-yl)-N-(3-(5-chloropyridin-2-yl)-3-hydroxypropyl)-2-fluoro-6-methylbenzamide] | > 15000 nM |  |  |
| Nc1nc2cc(-c3ccc(Cl)c(C(=O)NCC[C@@H](O)c4ccc(Cl)cc4)c3)ccn2n1 [Example 90, (R)-5-(2-amino-[1,2,4]triazolo[1,5-a]pyridin-7-yl)-2-chloro-N-(3-(4-chlorophenyl)-3-hydroxypropyl)benzamide] | > 15000 nM | 15 nM |  |
| Cc1ccc(-c2ccn3nc(N)nc3c2)c(F)c1C(=O)NC(C)CC(O)c1ccc(Cl)cc1 (racemic) [Example 19, 3-(2-amino-[1,2,4]triazolo[1,5-a]pyridin-7-yl)-N-[4-(4-chlorophenyl)-4-hydroxybutan-2-yl]-2-fluoro-6-methylbenzamide] | > 15000 nM |  | IC50 [2, 4]: 7.7 nM; IC50 [2, 5]: 7.7 nM |
| Nc1nc2cc(-c3ccc(Cl)c(C(=O)NCC[C@H](O)c4ccc(Cl)cc4)c3)ccn2n1 [Example 91, (S)-5-(2-amino-[1,2,4]triazolo[1,5-a]pyridin-7-yl)-2-chloro-N-(3-(4-chlorophenyl)-3-hydroxypropyl)benzamide] | 8000 nM | 34 nM |  |
| Cc1ccc(-c2ccn3nc(N)nc3c2)c(F)c1C(=O)NCCC(=O)c1ccc(Cl)cc1 [Example 143, 3-{2-amino-[1,2,4]triazolo[1,5-a]pyridin-7-yl}-N-[3-(4-chlorophenyl)-3-oxopropyl]-2-fluoro-6-methylbenzamide] | > 15000 nM |  | IC50 ([2]; Homo sapiens, 6 h, read-out: pMLKL IC50, HT29-L23 cells, necroptosis induced with TNFα, SMAC mimetic and Z-VAD, 6 h, maximal inhibition defined by Nec1s): 2.4 nM |
| Cc1c(C(=O)NC(CF)CC(O)c2ccc(Cl)cc2)cc(-c2ccn3nc(N)nc3c2)c(F)c1F (racemic) [Example 103, 5-(2-amino-[1,2,4]triazolo[1,5-a]pyridin-7-yl)-N-(4-(4-chlorophenyl)-1-fluoro-4-hydroxybutan-2-yl)-3,4-difluoro-2-methylbenzamide] | > 15000 nM |  | IC50 [2, 4]: 2060 nM |
| Cc1ccc(-c2ccn3nc(N)nc3c2)c(F)c1C(=O)NC(C)CC(O)c1ccc(Cl)cc1 (racemic) [Example 20, 3-(2-amino-[1,2,4]triazolo[1,5-a]pyridin-7-yl)-N-[4-(4-chlorophenyl)-4-hydroxybutan-2-yl]-2-fluoro-6-methylbenzamide] | > 15000 nM |  | IC50 [2, 4]: 3.6 nM; IC50 [2, 5]: 3.6 nM |
| Cc1ccc(-c2ccn3nc(N)nc3c2)c(F)c1C(=O)NC(CF)CC(O)c1ccc(Cl)cc1 (single isomer, unassigned) [Example 24, 3-(2-amino-[1,2,4]triazolo[1,5-a]pyridin-7-yl)-N-(4-(4-chlorophenyl)-1-fluoro-4-hydroxybutan-2-yl)-2-fluoro-6-methylbenzamide] | > 15000 nM |  |  |
| Cc1cc(F)c(-c2ccn3nc(N)nc3c2)cc1C(=O)NCCC(O)c1ccc(C(F)(F)F)cc1 (single isomer, unassigned) [Example 4, 5-(2-amino-[1,2,4]triazolo[1,5-a]pyridin-7-yl)-4-fluoro-N-(3-hydroxy-3-(4-(trifluoromethyl)phenyl)propyl)-2-methylbenzamide] | > 15000 nM |  | IC50 ([2]; read-out: pMLKL IC50, HT29-L23 cells, necroptosis induced with TNFα, SMAC mimetic and Z-VAD, 6 h, maximal inhibition defined by Nec1s): 1 nM |
| Cc1ccc(-c2ccn3nc(N)nc3c2)c(F)c1C(=O)NC[C@H](F)[C@@H](O)c1ccc(Cl)cc1 (single isomer, unassigned) [Example 302] | > 15000 nM |  |  |
| Cc1cc(F)c(-c2ccn3nc(N)nc3c2)cc1C(=O)NCCC(O)c1ccc(C(F)(F)F)cc1 (single isomer, unassigned) [Example 3, 5-(2-amino-[1,2,4]triazolo[1,5-a]pyridin-7-yl)-4-fluoro-N-(3-hydroxy-3-(4-(trifluoromethyl)phenyl)propyl)-2-methylbenzamide] | > 15000 nM |  |  |
| Nc1nc2cc(-c3c(F)ccc(C(=O)NCC[C@H](O)c4ccc(Cl)cc4)c3F)ccn2n1 [Example 219, (S)-3-(2-amino-[1,2,4]triazolo[1,5-a]pyridin-7-yl)-N-(3-(4-chlorophenyl)-3-hydroxypropyl)-2,4-difluorobenzamide] | > 15000 nM | 42 nM |  |
| Cc1ccc(-c2ccn3nc(N)nc3c2)c(F)c1C(=O)NCC[C@H](O)c1ccc(C#N)cc1 [Example 139, 3-{2-amino-[1,2,4]triazolo[1,5-a]pyridin-7-yl}-N-[(3S)-3-(4-cyanophenyl)-3-hydroxypropyl]-2-fluoro-6-methylbenzamide] | > 15000 nM | 7.4 nM |  |
| Cc1ccc(-c2ccn3nc(N)nc3c2)c(F)c1C(=O)NC[C@@H](F)[C@H](O)c1ccc(Cl)cc1 (single isomer, unassigned) [Example 303] | > 15000 nM |  |  |
| Cc1c(C(=O)NC(CF)CC(O)c2ccc(Cl)cc2)cc(-c2ccn3nc(N)nc3c2)c(F)c1F (racemic) [Example 102, 5-(2-amino-[1,2,4]triazolo[1,5-a]pyridin-7-yl)-N-(4-(4-chlorophenyl)-1-fluoro-4-hydroxybutan-2-yl)-3,4-difluoro-2-methylbenzamide] | > 15000 nM |  | IC50 [2, 4]: 7.6 nM |
| Nc1nc2cc(-c3c(F)ccc(C(=O)NCC[C@@H](O)c4ccc(Cl)cc4)c3F)ccn2n1 [Example 220, (R)-3-(2-amino-[1,2,4]triazolo[1,5-a]pyridin-7-yl)-N-(3-(4-chlorophenyl)-3-hydroxypropyl)-2,4-difluorobenzamide] | > 15000 nM | 36 nM |  |
| CC(O)(CCNC(=O)c1cc(-c2ccn3nc(N)nc3c2)ccc1Cl)c1ccccc1 (stereo not drawn) [Example 93, 5-(2-amino-[1,2,4]triazolo[1,5-a]pyridin-7-yl)-2-chloro-N-(3-hydroxy-3-phenylbutyl)benzamide] | 11000 nM | 256 nM |  |
| CC(CCNC(=O)c1cc(-c2ccn3nc(N)nc3c2)ccc1Cl)c1ccccc1 (stereo not drawn) [Example 92, 5-(2-amino-[1,2,4]triazolo[1,5-a]pyridin-7-yl)-2-chloro-N-(3-phenylbutyl)benzamide] | 5200 nM | 11 nM | IC50 ([2]; Homo sapiens, Table 22, compounds of the present invention, read-out: pMLKL IC50): 11 nM |
